According to patent US20260224563A1, “CRYSTALLINE FORMS OF 6-(3-((5-CHLORO-2-METHOXYPYRIDINE)-3-SULFONAMIDO)-2,6-DIFLUOROPHENYL)-N-METHYLIMIDAZO[1,5-A]PYRAZINE-1-CARBOXAMIDE AND METHODS FOR USING THE SAME” (HIBERCELL, INC., priority 2023, published 2026):
Where a name gives a salt, the structure may show the parent alone.

Experiments:
[1] = Water activity study of the crystalline potassium salt forms (acetone/water suspension, XRPD); format: physicochemical; details: for Relative stability of crystalline forms: versus Form III of the potassium salt
Description: A water activity study of the potassium salt forms was conducted in two groups: (i) Form I and Form III of the potassium salt, and (ii) Form II and Form III of the potassium salt.
Each suspension was shaken at 700 rpm in a shaker at 25° C., 35° C., 45° C., and 50° C., and the sample was analyzed by XRPD.

[2] = Heating of potassium salt forms (XRPD/DSC after heating); format: physicochemical

| Relative stability of crystalline forms ([1]; aw≥0.93 at temperatures≤25° C.) | Changes to XRPD patterns and DSC thermograms after heating ([2]; heating to 160° C.) | Time of conversion to Form III of the potassium salt ([1]; KF wt. %>0.19, 25-50° C., KF wt. %~0.1, 25° C. in acetone/water) | Relative stability of crystalline forms ([1]; KF wt. %≤0.1 at 35-50° C. in acetone/water) | Stability of the hydrate ([2]; 24° C.±2° C. and 50-80% relative humidity) | Changes to XRPD pattern or DSC thermogram upon heating ([2]; heating to 180° C.) | SMILES |
| --- | --- | --- | --- | --- | --- | --- |
| more stable | slight change |  |  |  |  | CNC(=O)c1ncn2cc(-c3c(F)ccc(NS(=O)(=O)c4cc(Cl)cnc4OC)c3F)ncc12 [Potassium salt Form II, 6-(3-((5-chloro-2-methoxypyridine)-3-sulfonamido)-2,6-difluorophenyl)-N-methylimidazo[1,5-a]pyrazine-1-carboxamide] |
|  |  | ≤ 1 days | more stable | stable | No changes | CNC(=O)c1ncn2cc(-c3c(F)ccc(NS(=O)(=O)c4cc(Cl)cnc4OC)c3F)ncc12 [Potassium salt Form I, 6-(3-((5-chloro-2-methoxypyridine)-3-sulfonamido)-2,6-difluorophenyl)-N-methylimidazo[1,5-a]pyrazine-1-carboxamide] |
